Measured values reported in PubChem BioAssay AID248 (DTP/NCI, 2004).
Several values for one entry are separate records, joined by “and”; a condition that tells them apart may be missing. Equal values may be shown once. Toxic doses and inconclusive results are not listed.

Tested on: L1210 leukemia ip in BDF1 mice, survival T/C
Test: NCI In Vivo Anticancer Drug Screen. Data for tumor model L1210 Leukemia (intraperitoneal) in B6D2F1 (BDF1) mice
Conditions: endpoint: mean survival time, higher = longer survival
Outline: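 Each compound was tested against a transplantable tumor grown in mice. The endpoint was survival, with treated animals benchmarked against vehicle controls as a simple ratio.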

[1] = dose: 100.0 mg/kg/injection, schedule: Q01DX009 (ip), vehicle: Klucel (hydroxypropylcellulose) (HPC)
[2] = dose: 100.0 mg/kg/injection, schedule: Q04DX003 (ip), vehicle: Klucel (hydroxypropylcellulose) (HPC)
[3] = dose: 200.0 mg/kg/injection, schedule: Q01DX009 (ip), vehicle: Klucel (hydroxypropylcellulose) (HPC)
[4] = dose: 200.0 mg/kg/injection, schedule: Q04DX003 (ip), vehicle: Klucel (hydroxypropylcellulose) (HPC)
[5] = dose: 400.0 mg/kg/injection, schedule: Q01DX009 (ip), vehicle: Klucel (hydroxypropylcellulose) (HPC)
[6] = dose: 400.0 mg/kg/injection, schedule: Q04DX003 (ip), vehicle: Klucel (hydroxypropylcellulose) (HPC)
[7] = dose: 100.0 mg/kg/injection, schedule: Q04DX002 (ip), vehicle: Klucel (hydroxypropylcellulose) (HPC)
[8] = dose: 200.0 mg/kg/injection, schedule: Q04DX002 (ip), vehicle: Klucel (hydroxypropylcellulose) (HPC)
[9] = dose: 400.0 mg/kg/injection, schedule: Q04DX002 (ip), vehicle: Klucel (hydroxypropylcellulose) (HPC)
[10] = dose: 100.0 mg/kg/injection, schedule: Q04DX003 (ip), vehicle: saline with Tween-80
[11] = dose: 200.0 mg/kg/injection, schedule: Q04DX003 (ip), vehicle: saline with Tween-80
[12] = dose: 400.0 mg/kg/injection, schedule: Q04DX003 (ip), vehicle: saline with Tween-80
[13] = dose: 100.0 mg/kg/injection, schedule: Q01DX001 (ip), vehicle: carboxymethylcellulose (CMC)
[14] = dose: 200.0 mg/kg/injection, schedule: Q01DX001 (ip), vehicle: carboxymethylcellulose (CMC)
[15] = dose: 400.0 mg/kg/injection, schedule: Q01DX001 (ip), vehicle: carboxymethylcellulose (CMC)
[16] = dose: 50.0 mg/kg/injection, schedule: Q01DX001 (ip), vehicle: carboxymethylcellulose (CMC)
[17] = dose: 100.0 mg/kg/injection, schedule: Q01DX001 (ip), vehicle: Klucel (hydroxypropylcellulose) (HPC)
[18] = dose: 200.0 mg/kg/injection, schedule: Q01DX001 (ip), vehicle: Klucel (hydroxypropylcellulose) (HPC)
[19] = dose: 400.0 mg/kg/injection, schedule: Q01DX001 (ip), vehicle: Klucel (hydroxypropylcellulose) (HPC)
[20] = dose: 100.0 mg/kg/injection, schedule: Q01DX009 (ip), vehicle: saline with Tween-80
[21] = dose: 200.0 mg/kg/injection, schedule: Q01DX009 (ip), vehicle: saline with Tween-80

SMILES: COc1c(C)cc(Br)c2c1C(CCN(C)S(=O)(=O)Cc1ccccc1)CCC2 (stereo not drawn)
- T/C [1]: 95 % of control
- T/C [2]: 96 % of control
- T/C [3]: 89 % of control
- T/C [4]: 98 % of control
- T/C [5]: 93 % of control
- T/C [6]: 91 % of control

SMILES: O=c1[nH]cnc2c1ncn2C1OC(CI)C(O)C1O (stereo not drawn)
- T/C (dose: 100.0 mg/kg/injection, schedule: Q01DX005 (ip), vehicle: saline): 95 % of control
- T/C (dose: 200.0 mg/kg/injection, schedule: Q01DX005 (ip), vehicle: saline): 101 % of control

SMILES: Cc1ccc(OCCO)cc1C
- T/C [7]: 120 % of control
- T/C [8]: 92 % of control
- T/C [9]: 92 % of control

SMILES: CCN(CC)C(=O)CS(=O)(=O)c1ccc(N)cc1
- T/C [10]: 102 % of control
- T/C [11]: 97 % of control
- T/C [12]: 100 % of control

SMILES: O=C(O)c1ccc(C(=O)O)c(C(=O)O)c1.[NH-]C1CCCCC1[NH-].[Pt+2]
- T/C (dose: 1.6 mg/kg/injection, schedule: Q01DX009 (ip), vehicle: sodium bicarbonate): 198 % of control
- T/C (dose: 3.2 mg/kg/injection, schedule: Q01DX009 (ip), vehicle: sodium bicarbonate): 256 % of control
- T/C (dose: 3.3 mg/kg/injection, schedule: Q01DX009 (ip), vehicle: saline): 187 % of control
- T/C (dose: 4.8 mg/kg/injection, schedule: Q01DX009 (ip), vehicle: sodium bicarbonate): 250 % of control
- T/C (dose: 6.4 mg/kg/injection, schedule: Q01DX009 (ip), vehicle: sodium bicarbonate): 179 % of control
- T/C (dose: 6.5 mg/kg/injection, schedule: Q01DX001 (ip), vehicle: saline): 112 % of control
- T/C (dose: 6.5 mg/kg/injection, schedule: Q01DX009 (ip), vehicle: saline): 194 % of control
- T/C (dose: 13.0 mg/kg/injection, schedule: Q01DX001 (ip), vehicle: saline): 115 % of control
- T/C (dose: 13.0 mg/kg/injection, schedule: Q01DX009 (ip), vehicle: saline): 152 % of control
- T/C (dose: 20.0 mg/kg/injection, schedule: Q01DX001 (ip), vehicle: sodium bicarbonate): 220 % of control
- T/C (dose: 26.0 mg/kg/injection, schedule: Q01DX009 (ip), vehicle: saline): 102 % of control
- T/C (dose: 40.0 mg/kg/injection, schedule: Q01DX001 (ip), vehicle: sodium bicarbonate): 205 % of control

SMILES: C[N+]1=C(/C=C\c2ccc3cccnc3c2O)C(C)(C)c2cc(F)ccc21
- T/C [13]: 93 % of control
- T/C [14]: 95 % of control
- T/C [15]: 88 % of control

SMILES: NC(=O)NC(=O)c1ccccn1
- T/C (dose: 75.0 mg/kg/injection, schedule: Q01DX001 (ip), vehicle: saline): 106 % of control
- T/C (dose: 150.0 mg/kg/injection, schedule: Q01DX001 (ip), vehicle: saline): 97 % of control
- T/C (dose: 300.0 mg/kg/injection, schedule: Q01DX001 (ip), vehicle: saline): 100 % of control

SMILES: CN(C)C(=Nc1ccc(NC(=O)c2ccc(C(=O)Nc3ccc(N=C(Nc4ccccc4)N(C)C)cc3)cc2)cc1)Nc1ccccc1
- T/C (dose: 1.5 mg/kg/injection, schedule: Q01DX Z (ip), vehicle: carboxymethylcellulose (CMC)): 95 % of control
- T/C (dose: 3.0 mg/kg/injection, schedule: Q01DX Z (ip), vehicle: carboxymethylcellulose (CMC)): 97 % of control
- T/C (dose: 6.0 mg/kg/injection, schedule: Q01DX Z (ip), vehicle: carboxymethylcellulose (CMC)): 107 % of control
- T/C (dose: 12.0 mg/kg/injection, schedule: Q01DX Z (ip), vehicle: carboxymethylcellulose (CMC)): 89 % of control

SMILES: NC(=S)NN=C1CCCCCCCCCCC1
- T/C [16]: 106 % of control
- T/C [13]: 98 % of control
- T/C [14]: 95 % of control
- T/C [15]: 88 % of control

SMILES: Cc1nc(N)[nH]c(=O)c1CCCC#N
- T/C [17]: 104 % of control
- T/C [7]: 97 % of control and 109 % of control
- T/C [2]: 101 % of control
- T/C [18]: 98 % of control
- T/C [8]: 93 % of control and 103 % of control
- T/C [4]: 112 % of control
- T/C [19]: 100 % of control
- T/C [9]: 104 % of control and 90 % of control

SMILES: CCN(CC)CCCC(C)Nc1c2ccccc2nc2c(Cl)cccc12 (stereo not drawn)
- T/C (dose: 20.0 mg/kg/injection, schedule: Q01DX Z (ip), vehicle: methylcellulose (MC)): 100 % of control and 86 % of control
- T/C (dose: 30.0 mg/kg/injection, schedule: Q01DX Z (ip), vehicle: methylcellulose (MC)): 92 % of control and 87 % of control
- T/C (dose: 45.0 mg/kg/injection, schedule: Q01DX Z (ip), vehicle: methylcellulose (MC)): 95 % of control and 101 % of control
- T/C (dose: 67.0 mg/kg/injection, schedule: Q01DX Z (ip), vehicle: methylcellulose (MC)): 91 % of control
- T/C [2]: 102 % of control

SMILES: O=C(Nc1ccccc1C(=O)N/N=C/c1ccccc1O)c1ccccc1Cl
- T/C [1]: 94 % of control
- T/C [3]: 94 % of control
- T/C [5]: 94 % of control

SMILES: O=C(Nc1ccsn1)c1ccc(Cl)cc1Cl
- T/C (dose: 50.0 mg/kg/injection, schedule: Q01DX009 (ip), vehicle: saline with Tween-80): 111 % of control
- T/C [20]: 91 % of control
- T/C [21]: 91 % of control

SMILES: COC(=O)C1=NN(C(C)=O)C(c2ccc(C)cc2)(c2ccc(C)cc2)C1
- T/C (dose: 100.0 mg/kg/injection, schedule: Q01DX001 (ip), vehicle: steriod suspending solution): 105 % of control
- T/C (dose: 200.0 mg/kg/injection, schedule: Q01DX001 (ip), vehicle: steriod suspending solution): 87 % of control
- T/C (dose: 400.0 mg/kg/injection, schedule: Q01DX001 (ip), vehicle: steriod suspending solution): 92 % of control

SMILES: Nc1ncnc(N)c1NC(=O)/C=C/c1ccccc1
- T/C (dose: 100.0 mg/kg/injection, schedule: Q01DX001 (ip), vehicle: saline with Tween-80): 116 % of control
- T/C (dose: 200.0 mg/kg/injection, schedule: Q01DX001 (ip), vehicle: saline with Tween-80): 101 % of control

SMILES: Fc1cc(N(CCCl)CCCl)ccc1C1N(Cc2ccc(N(CCCl)CCCl)cc2Cl)CCCN1Cc1ccc(N(CCCl)CCCl)cc1Cl
- T/C [16]: 96 % of control
- T/C [13]: 105 % of control
- T/C [14]: 96 % of control
- T/C [15]: 100 % of control

SMILES: ClCCCN1CCCCC1CCl (stereo not drawn)
- T/C (dose: 3.12 mg/kg/injection, schedule: Q01DX009 (ip), vehicle: saline): 114 % of control
- T/C (dose: 6.25 mg/kg/injection, schedule: Q01DX009 (ip), vehicle: saline): 114 % of control
- T/C (dose: 6.25 mg/kg/injection, schedule: Q04DX003 (ip), vehicle: saline): 111 % of control
- T/C (dose: 12.5 mg/kg/injection, schedule: Q04DX003 (ip), vehicle: saline): 111 % of control
- T/C (dose: 25.0 mg/kg/injection, schedule: Q04DX003 (ip), vehicle: saline): 150 % of control

SMILES: C=CC1CCN(CCn2cnc3c(N)ncnc32)CC1
- T/C [10]: 97 % of control
- T/C [11]: 103 % of control
- T/C [12]: 97 % of control

SMILES: CC(C)(C)c1cc(/C=N/NC(=O)CCCCCCCCC(=O)N/N=C/c2cc(C(C)(C)C)c(O)c(C(C)(C)C)c2)cc(C(C)(C)C)c1O
- T/C [17]: 104 % of control
- T/C [1]: 94 % of control
- T/C [7]: 109 % of control
- T/C [2]: 111 % of control
- T/C [18]: 103 % of control
- T/C [3]: 94 % of control and 90 % of control
- T/C [8]: 100 % of control
- T/C [4]: 110 % of control
- T/C [19]: 93 % of control
- T/C [9]: 102 % of control
- T/C [6]: 108 % of control

SMILES: CCCCP(=O)(CCCC)Oc1ccccc1F
- T/C [20]: 90 % of control
- T/C [21]: 86 % of control

SMILES: CC1CCS(=O)(=O)CC1.[Cl][Hg][Cl]
- T/C (dose: 0.31 mg/kg/injection, schedule: Q01DX009 (ip), vehicle: saline): 95 % of control
- T/C (dose: 0.62 mg/kg/injection, schedule: Q01DX009 (ip), vehicle: saline): 86 % of control
- T/C (dose: 1.25 mg/kg/injection, schedule: Q01DX009 (ip), vehicle: saline): 91 % of control

SMILES: CCOC(=S)c1ccc(S(=O)(=O)Nc2cccc3ccccc23)cc1
- T/C [17]: 97 % of control
- T/C [18]: 98 % of control
- T/C [19]: 95 % of control

SMILES: CCCCCCCCCCCCCCC/C(CC)=N/Nc1ccc([N+](=O)[O-])cc1[N+](=O)[O-]
- T/C (dose: 25.0 mg/kg/injection, schedule: Q01DX001 (ip), vehicle: Klucel (hydroxypropylcellulose) (HPC)): 103 % of control
- T/C (dose: 50.0 mg/kg/injection, schedule: Q01DX001 (ip), vehicle: Klucel (hydroxypropylcellulose) (HPC)): 101 % of control
- T/C [17]: 111 % of control
